Reference: BindingDB's records for doi:10.1016/s0960-894x(00)00348-6 (Smithkline Beecham Pharmaceuticals, 2000)
pIC50: −log10 of the molar value.

Target: Tyrosyl-tRNA synthetase (Staphylococcus aureus)
Assay: Inhibitory activity of compound against tyrosyl tRNA synthetase from Staphylococcus aureus was determined

SMILES: N[C@@H](Cc1ccc(O)cc1)C(=O)N[C@@H](C(=O)O)[C@H]1[C@H](O)[C@@H](O)[C@@H](O)CN1O [(R)-[(S)-2-Amino-3-(4-hydroxy-phenyl)-propionylamino]-((2S,3S,4S,5S)-1,3,4,5-tetrahydroxy-piperidin-2-yl)-acetic acid]
- pIC50: 7.68
